We go through nine compounds from patent US5162335A, “Di- and tetrahydroisoquinoline derivatives” (Duphar International Research B.V., priority 1986, dated 1992).

A value given as a limit tells only on which side of the number the result lay.

For this experiment, the system named is human cell lines: breast MCF7 and HTB26, colon WIDR and HTB38, lung HTB53, melanoma HTB66, and uterus HTB114. Briefly: Clonogenic assay with human cell lines (test 2). The settings on record: treatment approximately three times the cell cycle, more particularly the D-enantiomers, read-out: ID75 in the clonogenic assay (test 2). The format is cell-based. Here is the method: 2. CLONOGENIC ASSAY WITH HUMAN CELL LINES
The following human cell lines are used: breast MCF7 and HTB26, colon WIDR and HTB38, lung HTB53, melanoma HTB66, and uterus HTB114.
As comparative substances are used cisplatinum, 5-fluorouracil, daunomycine, bleomycine and adriamycine.
During providing the cells or after a pre-incubationperiod of one night, the compound to be tested is added as a solution or suspension in 0.5% CMC/saline solution in a dose range with a maximum concentration of 15 μg/ml.
The duration of the treatment is approximately three times the cell cycle. The cells are then fixed, coloured and evaluated for the presence of the colonies. The formation of colonies is expressed in the number of colonies which is present on the treated dishes as a perecentage of the number of colonies which is present on control dishes.
On to `COc1cc([C@H]2c3ccc4ccccc4c3C[C@H]3COC(=O)N32)cc(OC)c1OC` (relative stereo) [Example 81], for which the IC75 is under 1 µg/mL. Take `COc1cc([C@H]2c3c(ccc4ccccc34)C[C@H]3COC(=O)N32)cc(OC)c1OC` (relative stereo) [Example 82]: the IC75 is under 1 µg/mL. As for `COc1cc(OC)c([C@H]2c3cc4c(cc3C[C@H]3COC(=O)N32)OCCO4)cc1OC` [Example 80], the IC75 is under 1 µg/mL.

Consider `COc1cc([C@H]2N[C@@H](CO)Cc3cc4c(cc32)OCCO4)cc(OC)c1OC` [Example 20], for which the IC75 was under 1 µg/mL.

Take `COc1cc([C@@H]2c3cc4c(cc3C[C@@H]3CN(C)[S+]([O-])N32)OCO4)cc(OC)c1OC` (stereo partly drawn) [Example 70]: the IC75 is under 1 µg/mL.

For the compound `COc1cc([C@@H]2c3cc4c(cc3C[C@@H]3COS(=O)N32)OCO4)cc(OC)c1OC` (stereo partly drawn) [Example 55], the IC75 was under 1 µg/mL. For `COc1cc([C@H]2N[C@@H](CO)Cc3c2ccc2ccccc32)cc(OC)c1OC` (relative stereo) [Example 23], the IC75 was under 1 µg/mL. On to `COc1cc([C@H]2N[C@@H](C(N)=O)Cc3cc4c(cc32)OCCO4)cc(OC)c1OC` [Example 110], for which the IC75 is under 1 µg/mL. On to `COc1cc([C@@H]2c3cc4c(cc3C[C@@H]3COC(=O)N32)OCCO4)cc(OC)c1OC` [Example 79], for which the IC75 is under 1 µg/mL.
